Source: patent US6362166B1, “Antipicornaviral compounds and methods for their use and preparation” (Agouron Pharmaceuticals, Inc., priority 1996, dated 2002)
Like-named read-outs stand apart in the source and are kept apart here.

How the values were obtained:
[1] = Cytotoxicity in mock-infected HI-HeLa cells (antirhinoviral assay, XTT); type: cell-based; conditions: human; mock-infected HI-HeLa cells; two days; XTT; read-out: CC50
[2] = molecular target: T1, Recombinant Rhinovirus 3C protease (RVP) serotype-14 (Human rhinovirus 14, UniProt P03303); assay: Inhibition of Rhinovirus Protease (fluorescence resonance energy transfer assay), serotype 14; type: biochemical, human rhinovirus (HRV); conditions: for kinact/KI: pH 7.6, read-out: kobs/I; for kobs/I: progress curves in enzyme start experiments
T1 construct: Recombinant Rhinovirus 3C proteases from serotypes 14, 16, 2 or 89; made in house

HRV-14 = assay: Antirhinoviral HI-HeLa Cell Culture Assay (Cell Protection Assay, XTT dye reduction); type: cell-based, human rhinovirus (HRV) serotype-14
Outline: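 HI-HeLa cells infected with HRV-14 at m.o.i. 0.13 or mock-infected, then incubated with compounds for two days. Cell protection read by XTT/PMS formazan at 450/650 nm; therapeutic index = CC50/EC50.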

HI-HeLa cells = assay: Cytotoxicity in mock-infected HI-HeLa cells (antirhinoviral assay, XTT); type: cell-based
[3] = Rhinovirus B, HRV14, 48 h, HI-HeLa cells infected with HRV-14, m.o.i. 0.13, two days, XTT, read-out: EC50
[4] = HI-HeLa cells infected with HRV-14, m.o.i. 0.13, two days, XTT, read-out: EC50
[5] = mock-infected HI-HeLa cells, two days, XTT, read-out: CC50

T1 sequence (P03303 1538-1719): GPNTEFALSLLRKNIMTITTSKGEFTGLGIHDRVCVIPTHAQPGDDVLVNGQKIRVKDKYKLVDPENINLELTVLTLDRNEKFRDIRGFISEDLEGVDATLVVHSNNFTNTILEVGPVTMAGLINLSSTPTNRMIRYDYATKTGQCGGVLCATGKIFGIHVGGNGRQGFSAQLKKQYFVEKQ

Row | Compound | CC50 at 2 days [1] [µM] | Ki [2] [µM] | kinact/KI [2] [M⁻¹ s⁻¹] | EC50 (HRV-14; [3]) [µM] | further results
1 | CCOC(=O)/C=C/[C@H](CCC(N)=O)NC(=O)[C@H](Cc1ccccc1)NC(=O)[C@@H](NC(=O)OCc1ccccc1)C(C)(C)C [Compound 151] | 178 | > 4.8 | 39800 | 0.32 | –
2 | CC(C)C[C@H](NC(=O)OCc1ccccc1)C(=O)N[C@@H](Cc1ccccc1)C(=O)N[C@H](/C=C/C(=O)N1CCc2cc(F)ccc21)CCC(N)=O [Compound 87] | > 320 | 6 | 5430 | 10.6 | –
3 | CC(C)C[C@H](NC(=O)OCc1ccccc1)C(=O)N[C@@H](Cc1ccccc1)C(=O)N[C@H](/C=C/C(=O)N1CCc2cc(Br)ccc21)CCC(N)=O [Compound 94] | > 320 | 1.5 | 5800 | 46.8 | –
4 | CC(C)C[C@H](NC(=O)OCc1ccccc1)C(=O)N[C@@H](Cc1ccccc1)C(=O)N[C@H](/C=C/C(=O)OC1CCCCC1)CCC(N)=O [Compound 25] | > 100 | 5.5 | 3700 | 3.1 | –
5 | CC(C)C[C@H](NC(=O)OCc1ccccc1)C(=O)N[C@@H](Cc1ccccc1)C(=O)N[C@H](/C=C/C(=O)N1CCc2cc([N+](=O)[O-])ccc21)CCC(N)=O [Compound 86] | > 320 | 4 | 12000 | 17 | –
6 | CC(C)CC(NC(=O)OCc1ccccc1)C(=O)NC(Cc1ccccc1)C(=O)NC(C=C1CCCOC1=O)CCC(N)=O (stereo not drawn) [Compound 130] | > 100 | 0.03 to 0.04 | – | 15.8 | –
7 | CC(C)C[C@H](NC(=O)OCc1ccccc1)C(=O)N[C@@H](Cc1ccccc1)C(=O)N[C@H](/C=C/C(=O)N1CCc2cc(S(=O)(=O)N(C)C)ccc21)CCC(N)=O [Compound 88] | > 160 | > 30 | 8960 | 8.8 | –
8 | CC(C)CC(NC(=O)OCc1ccccc1)C(=O)NC(Cc1ccccc1)C(=O)NC(C=Cc1ccccc1C#N)CCC(N)=O (stereo not drawn) [Compound 145] | > 320 | 10 to 20 | – | > 320 | –
9 | CC(C)C[C@H](NC(=O)OCc1ccccc1)C(=O)N[C@@H](Cc1ccccc1)C(=O)N[C@H](/C=C/C(=O)N1CCc2cccc(Cl)c21)CCC(N)=O [Compound 91] | > 320 | 10 | 5430 | 56 | –
10 | COc1ccc2c(c1)CCN2C(=O)C=CC(CCC(N)=O)NC(=O)C(Cc1ccccc1)NC(=O)C(CC(C)C)NC(=O)OCc1ccccc1 (stereo not drawn) [Compound 93] | > 320 | – | 3440 | > 320 | –
11 | CCOC(=O)/C=C/[C@H](CCC(N)=O)NC(=O)[C@H](Cc1ccccc1)NC(=O)[C@H](CC(C)C)NC(=O)SC [Compound 119] | > 320 | 5 | 69800 | 1.1 | –
12 | CCOC(=O)/C=C/[C@H](CCC(=O)NC(c1ccccc1)(c1ccccc1)c1ccccc1)NC(=O)[C@H](Cc1ccccc1)NC(=O)[C@H](CC(C)C)NC(=O)OCc1ccccc1 [Compound 2, Ethyl-3-[CBZ-L-Leu-L-Phe-L-(Tr-Gln)]-E-Propenoate] | > 320 | 6.6 | – | 100 | –
13 | CCOC(=O)/C=C/[C@H](CCC(N)=O)NC(=O)[C@H](Cc1ccccc1)NC(=O)[C@H](CC(C)C)NC(=O)CO [Compound 111] | > 320 | 5 | 2060 | 29.5 | –
14 | CCOC(=O)/C=C/[C@H](CCC(N)=O)NC(=O)[C@H](Cc1ccccc1)NC(=O)[C@H](CC(C)C)NC(=O)CSc1ccccn1 [Compound 118] | > 320 | 39 | 1450 | 17.8 | –
15 | CC(C)CC(NC(=O)OCc1ccccc1)C(=O)NC(Cc1ccccc1)C(=O)NC(C=CCOc1ccc(C(F)(F)F)cc1)CCC(N)=O (stereo not drawn) [Compound 77] | > 320 | – | – | > 320 | –
16 | CC(C)C[C@H](NC(=O)OCc1ccccc1)C(=O)N[C@@H](Cc1ccccc1)C(=O)N[C@H](/C=C/CCl)CCC(N)=O [Compound 74] | 250 | 2.4 | – | 10 | –
17 | CC(C)C[C@H](NC(=O)OCc1ccccc1)C(=O)N[C@@H](Cc1ccccc1)C(=O)N[C@H](/C=C\CCl)CCC(N)=O [Compound 78] | 79.4 | 7 | – | 10 | –
18 | COc1cccc2[nH]c(C(=O)NC(Cc3ccc(F)cc3)C(=O)NC(/C=C/C(=O)O)CCC(N)=O)cc12 (stereo not drawn) [Compound 45] | > 100 | – | – | > 100 | –
19 | CC(C)C[C@H](NC(=O)OCc1ccccc1)C(=O)N[C@@H](Cc1ccccc1)C(=O)N[C@H](/C=C/c1nccn1C)CCC(N)=O [Compound 65] | > 320 | 2.9 | – | 158 | –

Row | Compound | CC50 at 2 days [1] [µM] | Ki [2] [µM] | kinact/KI [2] [M⁻¹ s⁻¹] | EC50 (HRV-14; [3]) [µM] | further results
20 | CCOC(=O)/C=C/[C@H](CCC(N)=O)NC(=O)[C@H](Cc1ccccc1)NC(=O)[C@@H](NC(=O)OCc1ccccc1)C(C)O (stereo partly drawn) [Compound 152] | > 320 | 3.2 | 38900 | 1.78 | –
21 | CCOC(=O)/C=C/[C@H](CCC(N)=O)NC(=O)[C@H](Cc1ccccc1)NC(=O)[C@H](CC(C)C)NC(C)=O [Compound 107] | > 320 | 13.5 | 3660 | 13.5 | –
22 | CC(C)C[C@H](NC(=O)OCc1ccccc1)C(=O)N[C@@H](Cc1ccccc1)C(=O)N[C@H](/C=C/C(=O)OC(C)C)CCC(N)=O [Compound 17, Isopropyl-3-(CBZ-L-Leu-L-Phe-L-Gln)-E-Propenoate] | > 100 | 1.25 | 6100 | 1.8 | –
23 | CCOC(=O)/C=C/[C@H](CCC(N)=O)NC(=O)[C@H](Cc1ccc(C#N)cc1)NC(=O)[C@H](CC(C)C)NC(=O)OCc1ccccc1 [Compound 132] | > 320 | 10 | 10800 | 5.6 | –
24 | CCOC(=O)/C=C/[C@H](CCC(N)=O)NC(=O)[C@H](Cc1ccccc1)NC(=O)[C@H](CC(C)C)NC(=O)OCc1ccncc1 [Compound 36] | > 320 | 15 | 12000 | 5.6 | –
25 | CCOC(=O)/C=C/[C@H](CCC(N)=O)NC(=O)[C@H](Cc1cnc[nH]1)NC(=O)[C@H](CC(C)C)NC(=O)OCc1ccccc1 [Compound 112] | > 320 | 13 | 6800 | – | EC50 (HRV-14; Rhinovirus B, HRV14, 48 h): 27 µM
26 | CCOC(=O)/C=C/[C@H](CCC(N)=O)NC(=O)[C@H](Cc1ccccc1)NC(=O)[C@@H](NC(=O)SCC)C(C)C [Compound 180] | > 100 | 0.42 | 300000 | 0.056 | –
27 | CCOC(=O)/C=C/C(CCC(N)=O)NC(=O)C(Cc1ccccc1)NC(=O)C(CC(C)C)NC(=O)c1ccc2ccccc2c1 (stereo not drawn) [Compound 44] | > 320 | 12.6 | 21000 | 1 | –
28 | CCOC(=O)/C=C/C(CCC(N)=O)NC(=O)C(Cc1ccc(Cl)cc1)NC(=O)c1cc2c(OC)cccc2n1C(c1ccccc1)(c1ccccc1)c1ccccc1 [Compound 29, Ethyl-3-[N-(1-Tr-4-Methoxyindole-2-Carbonyl)-L-(4-Cl-Phe)-L-Gln]-E-Propenoate] | 500 | – | – | 27 | –
29 | CCOC(=O)/C=C/[C@H](CCC(N)=O)NC(=O)[C@H](Cc1ccccc1)NS(=O)(=O)Cc1ccccc1 [Compound 32, Ethyl-3-[N-(Benzylsulfonyl)-L-Phe-L-Gln]-E-Propenoate] | – | – | – | – | CC50 (HI-HeLa cells): > 100 µM; kobs/I ([2]; RVP serotype-14): 280 M⁻¹ s⁻¹; EC50 (HRV-14; [4]): 10 µM
30 | CCN(CC)c1ccc(C(=O)/C=C/[C@H](CCC(N)=O)NC(=O)[C@H](Cc2ccccc2)NC(=O)[C@H](CC(C)C)NC(=O)OCc2ccccc2)cc1 [Compound 43] | – | – | – | – | CC50 (HI-HeLa cells): 18 µM; kobs/I ([2]; RVP serotype-14): 4,500 M-1 sec-1; EC50 (HRV-14; [4]): 10 µM
31 | CCOC(=O)/C=C/[C@H](CCC(N)=O)NC(=O)[C@H](Cc1ccc(OCC)cc1)NC(=O)[C@H](CC(C)C)NC(=O)OCc1ccccc1 [Compound 136] | – | – | – | – | CC50 (HI-HeLa cells): > 320 µM; kobs/I ([2]; RVP serotype-14): 4,210 M-1 sec-1; EC50 (HRV-14; [4]): > 320 µM
32 | CC(=O)OCC=CC(CCC(N)=O)NC(=O)C(Cc1ccccc1)NC(=O)C(CC(C)C)NC(=O)OCc1ccccc1 (stereo not drawn) [Compound 76] | > 320 | – | – | > 320 | –
33 | CC(C)C[C@H](NC(=O)OCc1ccccc1)C(=O)N[C@@H](Cc1ccccc1)C(=O)N[C@H](/C=C/C(=O)N1CCCO1)CCC(N)=O [Compound 79] | – | – | – | – | CC50 (HI-HeLa cells; [5]): > 320 µM; kobs/I ([2]; RVP serotype-14): 13,900 M-1 sec-1; EC50 (HRV-14; [4]): 45 µM
34 | CC(C)C[C@H](NC(=O)OCc1ccccc1)C(=O)N[C@@H](Cc1ccccc1)C(=O)N[C@H](/C=C/C(=O)N1CCc2cccc(S(C)(=O)=O)c21)CCC(N)=O [Compound 95] | – | – | – | – | CC50 (HI-HeLa cells; [5]): > 320 µM; kobs/I ([2]; RVP serotype-14): <1000 M⁻¹ s⁻¹; EC50 (HRV-14; [4]): > 320 µM
35 | CCOC(=O)/C=C/[C@H](CCC(N)=O)NC(=O)[C@H](Cc1ccccc1)NC(=O)[C@H](CC(C)C)NC(=O)SC1CCCC1 [Compound 182] | – | – | – | – | CC50 (HI-HeLa cells): > 100 µM; kobs/I ([2]; RVP serotype-14): 114,360 M-1 sec-1; EC50 (HRV-14; [4]): 0.18 µM
36 | CCOC(=O)C=CC(CCC(N)=O)NC(=O)C(Cc1ccccc1)NC(=O)C(NC(=O)OCc1ccccc1)c1ccccc1 (stereo not drawn) [Compound 71] | – | – | – | – | CC50 (HI-HeLa cells): > 320 µM; kobs/I ([2]; RVP serotype-14): 20,650 M-1 sec-1; EC50 (HRV-14; [4]): 14.1 µM
37 | CC(C)C[C@H](NC(=O)OCc1ccccc1)C(=O)N[C@@H](Cc1ccccc1)C(=O)N[C@H](/C=C/C(=O)Nc1ccccc1)CCC(N)=O [Compound 59] | – | – | – | – | CC50 (HI-HeLa cells; [5]): > 320 µM; Ki ([2]; RVP serotype-14, 10 minute preincubation, substrate start, read-out: INHIB (Ki)): 2 µM; kobs/I ([2]; RVP serotype-14): 200 M⁻¹ s⁻¹; EC50 (HRV-14; [4]): > 320 µM
